Experimental data published in ChEMBL document CHEMBL3621049, “Imidazole derivatives show anticancer potential by inducing apoptosis and cellular senescence” (2014).
Calls of active or inactive are those of the source.

Key:
Format in all cases: functional, cell-based
[1] = test system: CCRF-CEM; experiment: Growth inhibition of human CCRF-CEM cells at 10 uM by sulforhodamine B assay
[2] = test system: HL-60(TB); experiment: Growth inhibition of human HL-60(TB) cells at 10 uM by sulforhodamine B assay
[3] = test system: K562; experiment: Growth inhibition of human K562 cells at 10 uM by sulforhodamine B assay
[4] = test system: MOLT-4; experiment: Growth inhibition of human MOLT4 cells at 10 uM by sulforhodamine B assay
[5] = test system: RPMI-8226; experiment: Growth inhibition of human RPMI8226 cells at 10 uM by sulforhodamine B assay
[6] = test system: SR; experiment: Growth inhibition of human SR cells at 10 uM by sulforhodamine B assay
[7] = test system: A549; experiment: Growth inhibition of human A549/ATCC cells at 10 uM by sulforhodamine B assay
[8] = test system: HOP-62; experiment: Growth inhibition of human HOP62 cells at 10 uM by sulforhodamine B assay
[9] = test system: NCI-H226; experiment: Growth inhibition of human NCI-H226 cells at 10 uM by sulforhodamine B assay
[10] = test system: NCI-H23; experiment: Growth inhibition of human NCI-H23 cells at 10 uM by sulforhodamine B assay
[11] = test system: NCI-H322M; experiment: Growth inhibition of human NCI-H322M cells at 10 uM by sulforhodamine B assay
[12] = test system: NCI-H460; experiment: Growth inhibition of human NCI-H460 cells at 10 uM by sulforhodamine B assay
[13] = test system: NCI-H522; experiment: Growth inhibition of human NCI-H522 cells at 10 uM by sulforhodamine B assay
[14] = test system: COLO 205; experiment: Growth inhibition of human COLO205 cells at 10 uM by sulforhodamine B assay
[15] = test system: HCT-116; experiment: Growth inhibition of human HCT116 cells at 10 uM by sulforhodamine B assay
[16] = test system: HCT-15; experiment: Growth inhibition of human HCT15 cells at 10 uM by sulforhodamine B assay
[17] = test system: HT-29; experiment: Growth inhibition of human HT-29 cells at 10 uM by sulforhodamine B assay
[18] = test system: KM12; experiment: Growth inhibition of human KM12 cells at 10 uM by sulforhodamine B assay
[19] = test system: SW-620; experiment: Growth inhibition of human SW620 cells at 10 uM by sulforhodamine B assay
[20] = test system: SF-268; experiment: Growth inhibition of human SF268 cells at 10 uM by sulforhodamine B assay
[21] = test system: SF-295; experiment: Growth inhibition of human SF295 cells at 10 uM by sulforhodamine B assay
[22] = test system: SF-539; experiment: Growth inhibition of human SF539 cells at 10 uM by sulforhodamine B assay
[23] = test system: SNB-19; experiment: Growth inhibition of human SNB19 cells at 10 uM by sulforhodamine B assay
[24] = test system: SNB-75; experiment: Growth inhibition of human SNB75 cells at 10 uM by sulforhodamine B assay
[25] = test system: U-251; experiment: Growth inhibition of human U251 cells at 10 uM by sulforhodamine B assay
[26] = test system: LOX IMVI; experiment: Growth inhibition of human LOXIMVI cells at 10 uM by sulforhodamine B assay
[27] = test system: M14; experiment: Growth inhibition of human M14 cells at 10 uM by sulforhodamine B assay
[28] = test system: MDA-MB-435; experiment: Growth inhibition of human MDA-MB-435 cells at 10 uM by sulforhodamine B assay
[29] = test system: SK-MEL-2; experiment: Growth inhibition of human SK-MEL-2 cells at 10 uM by sulforhodamine B assay
[30] = test system: SK-MEL-28; experiment: Growth inhibition of human SK-MEL-28 cells at 10 uM by sulforhodamine B assay
[31] = test system: SK-MEL-5; experiment: Growth inhibition of human SK-MEL-5 cells at 10 uM by sulforhodamine B assay
[32] = test system: UACC-257; experiment: Growth inhibition of human UACC257 cells at 10 uM by sulforhodamine B assay
[33] = test system: IGROV-1; experiment: Growth inhibition of human IGROV1 cells at 10 uM by sulforhodamine B assay
[34] = test system: OVCAR-3; experiment: Growth inhibition of human OVCAR3 cells at 10 uM by sulforhodamine B assay
[35] = test system: OVCAR-4; experiment: Growth inhibition of human OVCAR4 cells at 10 uM by sulforhodamine B assay
[36] = test system: OVCAR-5; experiment: Growth inhibition of human OVCAR5 cells at 10 uM by sulforhodamine B assay
[37] = test system: OVCAR-8; experiment: Growth inhibition of human OVCAR8 cells at 10 uM by sulforhodamine B assay
[38] = test system: NCI/ADR-RES; experiment: Growth inhibition of human NCI/ADR-RES cells at 10 uM by sulforhodamine B assay
[39] = test system: SK-OV-3; experiment: Growth inhibition of human SKOV3 cells at 10 uM by sulforhodamine B assay
[40] = test system: 786-0; experiment: Growth inhibition of human 786-0 cells at 10 uM by sulforhodamine B assay
[41] = test system: A498; experiment: Growth inhibition of human A498 cells at 10 uM by sulforhodamine B assay
[42] = test system: ACHN; experiment: Growth inhibition of human ACHN cells at 10 uM by sulforhodamine B assay
[43] = test system: CAKI-1; experiment: Growth inhibition of human Caki1 cells at 10 uM by sulforhodamine B assay
[44] = test system: SN12C; experiment: Growth inhibition of human SN12C cells at 10 uM by sulforhodamine B assay
[45] = test system: UO-31; experiment: Growth inhibition of human UO31 cells at 10 uM by sulforhodamine B assay
[46] = test system: PC-3; experiment: Growth inhibition of human PC3 cells at 10 uM by sulforhodamine B assay
[47] = test system: DU-145; experiment: Growth inhibition of human DU145 cells at 10 uM by sulforhodamine B assay
[48] = test system: MCF7; experiment: Growth inhibition of human MCF7 cells at 10 uM by sulforhodamine B assay
[49] = test system: MDA-MB-231; experiment: Growth inhibition of human MDA-MB-231 cells at 10 uM by sulforhodamine B assay
[50] = test system: Hs-578T; experiment: Growth inhibition of human Hs 578T cells at 10 uM by sulforhodamine B assay
[51] = test system: BT-549; experiment: Growth inhibition of human BT549 cells at 10 uM by sulforhodamine B assay
[52] = test system: T47D; experiment: Growth inhibition of human T47D cells at 10 uM by sulforhodamine B assay
[53] = test system: MDA-MB-468; experiment: Growth inhibition of human MDA-MB-468 cells at 10 uM by sulforhodamine B assay
[54] = test system: TK-10; experiment: Growth inhibition of human TK10 cells at 10 uM by sulforhodamine B assay
[55] = test system: UACC-62; experiment: Growth inhibition of human UACC62 cells at 10 uM by sulforhodamine B assay
[56] = test system: HOP-92; experiment: Growth inhibition of human HOP92 cells at 10 uM by sulforhodamine B assay
[57] = test system: Malme-3M; experiment: Growth inhibition of human MALME-3M cells at 10 uM by sulforhodamine B assay
[58] = test system: HCC 2998; experiment: Growth inhibition of human HCC2998 cells at 10 uM by sulforhodamine B assay
[59] = test system: RXF 393; experiment: Growth inhibition of human RXF393 cells at 10 uM by sulforhodamine B assay

Measured: growth inhibition (GI)

COc1cc(-c2nc(-c3ccccc3)c(-c3ccccc3)[nH]2)ccc1OC1CCCC1
active: all assays above

COc1ccc(-c2nc(-c3ccccc3)c(-c3ccccc3)[nH]2)cc1OC1CCCC1
active: all assays above
